Measured values reported in patent publication US6713051B2, “Antiperspirant or deodorant compositions” (Unilever Home & Personal Care USA division of Conopco, Inc., priority 2001, dated 2004).

Target: T1, human PPARα (Homo sapiens, UniProt Q07869)
T1 construct: The coding region of a human PPARα cDNA was inserted downstream of the CMV promoter; expressed in transfected cells; host or cells: Cos-7 cells, transient transfection (pcDNA3.1(−)-PPARα, pRSV-RXRα, 3xPPRE-TK-luc reporter, pRL-TK)
T1 sequence (Q07869 1-468): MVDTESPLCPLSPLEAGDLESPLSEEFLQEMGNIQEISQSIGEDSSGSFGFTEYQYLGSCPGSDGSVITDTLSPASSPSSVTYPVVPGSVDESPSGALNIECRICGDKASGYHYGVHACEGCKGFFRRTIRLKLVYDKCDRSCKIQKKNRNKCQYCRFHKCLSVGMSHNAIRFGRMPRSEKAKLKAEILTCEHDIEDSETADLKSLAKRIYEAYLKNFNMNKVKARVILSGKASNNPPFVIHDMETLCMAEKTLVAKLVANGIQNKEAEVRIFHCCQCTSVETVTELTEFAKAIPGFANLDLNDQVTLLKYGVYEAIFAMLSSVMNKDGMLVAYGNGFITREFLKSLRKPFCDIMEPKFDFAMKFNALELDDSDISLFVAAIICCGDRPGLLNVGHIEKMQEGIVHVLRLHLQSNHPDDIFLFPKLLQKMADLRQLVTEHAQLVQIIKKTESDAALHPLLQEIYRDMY
T1 sequence (P19793 1-462 partner): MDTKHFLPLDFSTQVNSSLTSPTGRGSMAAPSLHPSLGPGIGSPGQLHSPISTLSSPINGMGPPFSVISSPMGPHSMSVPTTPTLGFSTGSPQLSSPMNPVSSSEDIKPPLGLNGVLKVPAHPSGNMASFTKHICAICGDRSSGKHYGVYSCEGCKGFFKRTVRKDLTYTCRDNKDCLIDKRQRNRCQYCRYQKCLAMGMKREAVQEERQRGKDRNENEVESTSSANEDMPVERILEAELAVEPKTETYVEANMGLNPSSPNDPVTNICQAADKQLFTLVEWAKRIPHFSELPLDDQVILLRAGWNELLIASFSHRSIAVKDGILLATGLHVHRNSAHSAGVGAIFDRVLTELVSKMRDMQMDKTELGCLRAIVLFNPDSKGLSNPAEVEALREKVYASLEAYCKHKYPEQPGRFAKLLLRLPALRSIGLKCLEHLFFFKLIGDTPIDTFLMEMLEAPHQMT
Assay: PPARα reporter gene assay (firefly luciferase, transiently transfected Cos-7 cells)
Assay type: cell-based
Conditions: for Result (superior activity class achieved): class reached; for Pass at (lowest tested administration level at which the test material passed): pass = activation greater than oleic acid at 100 μM, commonly >1.57 times vehicle control, 24 h treatment
From the text: One convenient reporter assay for determining whether a fatty acid material is PPARα activating is based upon the firefly luciferase gene.
Fatty acids were screened to identify PPAR activating fatty acids using a reporter assay.
This assay relied on ligands binding to and activating the PPARα protein, which, in turn, activated genes under the control of PPAR response elements (PPRE). In the assay, the firefly luciferase gene was cloned behind a promoter containing 3 copies of the fatty acid binding protein PPRE.
The assay was performed by transient transfection of Cos-7 cells with a mixture of four DNA plasmids. These were:
1) PPAR reporter gene construct (Modified pNF-KB-luc reporter vector (Firefly luciferase reporter vector commercially available form Clontech (NF-kB response element, TK minimal promoter, luc^+, f1 origin, pUC origin, amp^r)). A tandem repeat of 3 PPAR response elements (PPREs) corresponding to the PPRE found in the fatty acid binding protein promoter was inserted upstream of the minimal TK promoter to replace the NF-κB response element);
2) 2) Over-expressing PPARα construct (Modified pcDNA3.1(−) vector (A mammalian expression vector commercially available from Invitrogen (CMV promoter, f1 origin, SV40 origin, ColE1 origin, neo^r, amp^r)). The coding region of a human PPARα cDNA was inserted downstream of the CMV promoter of pcDNA3.1 (−)). […] The coding region of a human RXRα cDNA has been inserted downstream of the RSV promoter. (Gift of V. K. K. Chatterjee, Addenbrooke's Hospital, Cambridge)) 4) Control luciferase construct (pRL-TK Renilla luciferase reporter vector commercially available from Promega (HSV-TK promoter, T7 promoter, Rluc^+, ori, amp^r)). For the transfection, DNA was made up as a mix of PPAR reporter gene: PPARα: RXRα: control in the ratio 40:4:3:3.
Cos-7 cells were grown in Dulbecco's modified Eagle's Medium, also herein referred to as DMEM with 10% foetal calf serum, herein also referred to as FCS at 37° C., 5% CO2 to 80% confluency. Cells were then plated out in 24 well plates at 50,000 cells per well and incubated overnight in DMEM with 10% FCS at 37° C., 5% CO2. Cells were then transfected using the LipofectAMINE reagent (GibcoBRL). For each well 0.4 μg of DNA mix (in 25 μl of DMEM) was incubated with 1 μl LipofectAMINE (in 25 μl of DMEM) for 45 minutes. The mixture was then made up to 250 μl per well and added to the cells, which had been washed with 1 ml of DMEM. Cells were then incubated for 5 hours at 37° C., 5% CO2 and 250 μl DMEM with 10% SBCS (charcoal stripped bovine calf serum) added. Cells were incubated for 18 hours at 37° C., 5% CO2 before being treated with the appropriate compound/extract. Test compounds were made up as 1000× stocks (in DMSO or ethanol as appropriate) and diluted into DMEM with 10% SBCS (500 μl per well) immediately before being added to cells. Each treatment was performed in triplicate. The transfection mix was removed from the cells and replaced with the treatment mix, and incubated for 24 hours at 37° C., 5% CO2. Cells were washed with 1 ml of PBS (without calcium or magnesium) and then lysed with 100 μl per well of 1× Passive Lysis Buffer (as supplied with Promega Dual Luciferase assay kit). Lysis was allowed to continue for 15 minutes and then the lysate was assayed for Firefly and Renilla luciferase activity using the Promega Dual Luciferase assay kit. For the assay, 20 μl of lysate was taken and assayed as described in the kit instructions using a MLX microtiter™ plate luminometer (Dynex).
Firefly luciferase activity (PPAR driven) was normalised against the Renilla luciferase value for that well and the mean calculated for the three wells treated with the same agent. Activity was then expressed as fold activation over the vehicle (DMSO or ethanol) control values for that particular plate.

Structure (SMILES) | Result at (lowest administration level at which super or MS activity was achieved) | Result (superior activity class achieved) | Pass at (lowest tested administration level at which the test material passed) | PPARα activation compared with the vehicle control (100 μM, base-line)
CCCCCCC(O)CCCCCCCCCCC(=O)O (stereo not drawn) [12-hydroxystearic acid] | 25 μm | MS (more superior activity [MS] (100% higher—at least 3 times PPARα activation)) | 10 μm | –
CCCCC/C=C\C/C=C\C/C=C\C/C=C\CCCC(=O)O [Arachidonic acid] | – | – | 25 μm | –
CCCCCC/C=C/C=C/CCCCCCCC(=O)O [CLA (t9, t11)] | 100 μm | MS (more superior activity [MS] (100% higher—at least 3 times PPARα activation)) | 50 μm | –
CCCCC/C=C\C/C=C\CC/C=C/CCCC(=O)O [Columbinic acid, columbinic acid] | 25 μm | super (superior activity [super] (50% higher—at least 2.25 times PPARα activation)) | 10 μm | –
CCCCCCCC/C=C/CCCCCCCC(=O)O [Elaidic acid] | – | – | 100 μm | –
CCCCC/C=C\C/C=C\CCCCCCCC(=O)O [Linoleic acid] | 100 μm | super (superior activity [super] (50% higher—at least 2.25 times PPARα activation)) | 10 μm | –
CCCCC/C=C/C/C=C/CCCCCCCC(=O)O [Linolelaidic acid] | – | – | 25 μm | –
CC/C=C/C/C=C/C/C=C/CCCCCCCC(=O)O [Linolenelaidic acid, linolenelaidic acid] | 25 μm | super (superior activity [super] (50% higher—at least 2.25 times PPARα activation)) | 25 μm | –
CCCCCCCC/C=C\CCCCCCCC(=O)O [Oleic acid, reference compound] | – | – | – | Base-line Oleic acid (1.57 at 100 μM) times
CCCCCC/C=C\CCCCCCCC(=O)O [Palmitoleic acid] | – | – | 50 μm | –
CCCCCCCCCCC/C=C/CCCCC(=O)O [Petroselaidic acid] | 100 μm | super (superior activity [super] (50% higher—at least 2.25 times PPARα activation)) | 50 μm | –
CCCC\C=C/C=C/C=C\CCCCCCCC(=O)O [Punicic acid, punicic acid] | – | – | 25 μm | –
CCCCCC[C@@H](O)C/C=C/CCCCCCCC(=O)O [Ricinolaidic acid, ricinolaidic acid] | 25 μm | MS (more superior activity [MS] (100% higher—at least 3 times PPARα activation)) | 10 μm | –
CCCCCC[C@@H](O)C/C=C\CCCCCCCC(=O)O [Ricinoleic acid, ricinoleic acid] | – | – | 10 μm | –
CC/C=C\C/C=C\C/C=C\C/C=C\CCCCC(=O)O [Stearidonic/octadecatetraenoic acid, stearidonic acid] | 25 μm | super (superior activity [super] (50% higher—at least 2.25 times PPARα activation)) | 25 μm | –
CCCCCCCCC#CCCCCCCCC(=O)O [Stearolic acid] | – | – | 10 μm | –
CCCCCCCCCC/C=C/CCCCCC(=O)O [Trans-7-octadecenoic acid] | 10 μm | MS (more superior activity [MS] (100% higher—at least 3 times PPARα activation)) | 10 μm | –
CCCC/C=C/CCCCCCCCCCCC(=O)O [Trans-13-octadecenoic acid] | – | – | 10 μm | –
Cc1cccc(Nc2cc(Cl)nc(SCC(=O)O)n2)c1C [WY14,643, reference compound] | 100 μm | super (superior activity [super] (50% higher—at least 2.25 times PPARα activation)) | 10 μm | –
CCCCCC=CC/C=C\CCCCCCCCCCCC(=O)O [cis 13,16 docosadienoic acid] | – | – | 10 μm | –
CCC=CCC=CCC=CCC=CCC=CC/C=C\CCC(=O)O [cis-4,7,10,13,16,19 docosahexenoic acid] | – | – | 10 μm | –
CCCCCCCCCCCCCC/C=C\CCCC(=O)O [cis-5 eicosenoic acid] | 100 μm | MS (more superior activity [MS] (100% higher—at least 3 times PPARα activation)) | 10 μm | –
CCCCCC=CCC=CCC=CC/C=C\CCCCCC(=O)O [cis-7,10,13,16 docosatetraenoic acid] | 100 μm | super (superior activity [super] (50% higher—at least 2.25 times PPARα activation)) | 100 μm | –
CCCCCC=CCC=CC/C=C\CCCCCCC(=O)O [cis-8,11,14 eicosatrienoic acid] | 100 μm | super (superior activity [super] (50% higher—at least 2.25 times PPARα activation)) | 100 μm | –
CCCCCCCC/C=C\CCCCCCCCCC(=O)O [cis-11 eicosenoic acid] | – | – | 100 μm | –
